# In patent publication US20260265233A1, “BENZOTHIOPHENE DERIVATIVES AS RXFP1 AGONISTS” (BRISTOL-MYERS SQUIBB COMPANY, priority 2021, published 2026):
# Molecular target: T1, human RXFP1 (Homo sapiens, UniProt Q9HBX9)
# T1 construct: expressed in transfected cells
# T1 sequence (Q9HBX9 1-757): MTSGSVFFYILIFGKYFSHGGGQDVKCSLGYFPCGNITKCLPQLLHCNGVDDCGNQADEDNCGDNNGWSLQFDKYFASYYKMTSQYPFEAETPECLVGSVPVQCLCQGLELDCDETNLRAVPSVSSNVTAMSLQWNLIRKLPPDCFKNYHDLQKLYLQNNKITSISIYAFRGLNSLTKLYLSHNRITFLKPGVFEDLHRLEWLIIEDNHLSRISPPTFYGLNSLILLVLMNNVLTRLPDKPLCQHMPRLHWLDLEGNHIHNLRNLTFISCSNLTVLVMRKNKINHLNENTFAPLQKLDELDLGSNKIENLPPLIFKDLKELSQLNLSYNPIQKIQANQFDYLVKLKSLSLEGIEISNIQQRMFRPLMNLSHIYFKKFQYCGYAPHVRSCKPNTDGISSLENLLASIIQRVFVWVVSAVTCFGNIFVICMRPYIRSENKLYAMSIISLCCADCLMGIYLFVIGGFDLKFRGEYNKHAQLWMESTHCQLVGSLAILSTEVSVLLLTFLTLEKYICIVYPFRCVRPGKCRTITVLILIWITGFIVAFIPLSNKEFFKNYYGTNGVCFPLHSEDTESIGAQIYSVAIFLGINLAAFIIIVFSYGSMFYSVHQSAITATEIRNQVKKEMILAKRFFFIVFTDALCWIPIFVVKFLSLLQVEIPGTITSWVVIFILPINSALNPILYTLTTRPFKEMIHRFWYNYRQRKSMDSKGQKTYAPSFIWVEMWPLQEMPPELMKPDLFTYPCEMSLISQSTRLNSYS
# Test: hRXFP1 HEK293 cAMP assay (HTRF)
# Format: cell-based
# Conditions: HEK293 cells stably expressing human RXFP1; 30 min at rt; intracellular cAMP by HTRF
# How it was run: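 Agonism is measured as cAMP by HTRF, quantified from a standard curve via the 665/590 nm ratio and fitted with a four-parameter logistic equation. Compounds (0.010 nM to 50 μM final, 2% DMSO) were applied for 30 min at rt to human RXFP1-expressing HEK293 cells in assay buffer containing 0.5 mM IBMX.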
row,Structure (SMILES),EC50 [nM]
1,"COc1ccc(C2=NOC3CC(NC(=O)C(C)(C)O)CC23)cc1C(=O)Nc1c(C(=O)Nc2ccc(F)c(C(F)(F)F)c2)sc2cc(C(F)(F)F)ccc12 (single isomer, unassigned) [Example 265, N-[4-fluoro-3-(trifluoromethyl)phenyl]-3-{5-[5-(2-hydroxy-2-methyl-propanamido)-3aH,4H,5H,6H, 6aH-cyclopenta[d] [1,2]oxazol-3-yl]-2-methoxy-benzamido}-6-(trifluoromethyl)-1-benzothiophene-2-carboxamide]",1140
2,"COc1ccc(C2=NOC3CC(NC(=O)CO)CC23)cc1C(=O)Nc1c(C(=O)Nc2ccc(F)c(C(F)(F)F)c2)sc2cc(C(F)(F)F)ccc12 (single isomer, unassigned) [Example 266, N-[4-fluoro-3-(trifluoromethyl)phenyl]-3-{5-[5-(2-hydroxyacetamido)-3aH,4H,5H,6H, 6aH-cyclopenta[d] [1,2]oxazol-3-yl]-2-methoxy-benzamido}-6-(trifluoromethyl)-1-benzothiophene-2-carboxamide]",2410
3,"COc1ccc(C2=NOC3CC(NC(=O)C(C)(C)O)CC23)cc1C(=O)Nc1c(C(=O)Nc2ccc(F)c(C(F)(F)F)c2)sc2cc(C(F)(F)F)ccc12 (single isomer, unassigned) [Example 267, N-[4-fluoro-3-(trifluoromethyl)phenyl]-3-{5-[5-(2-hydroxy-2-methyl-propanamido)-3aH,4H,5H,6H, 6aH-cyclopenta[d] [1,2]oxazol-3-yl]-2-methoxy-benzamido}-6-(trifluoromethyl)-1-benzothiophene-2-carboxamide]",3130
4,"COc1ccc(C2=NOC3CC(CO)CC23)cc1C(=O)Nc1c(C(=O)Nc2ccc(F)c(C(F)(F)F)c2)sc2cc(C(F)(F)F)ccc12 (single isomer, unassigned) [Example 268, N-[4-fluoro-3-(trifluoromethyl)phenyl]-3-{5-[5-(hydroxymethyl)-3aH,4H,5H,6H, 6aH-cyclopenta[d] [1,2]oxazol-3-yl]-2-methoxy-benzamido}-6-(trifluoromethyl)-1-benzothiophene-2-carboxamide]",4.9
5,"COc1ccc(N2CCCC(NCC(N)=O)C2)cc1C(=O)Nc1c(C(=O)Nc2ccc(F)c(C(F)(F)F)c2)sc2cc(C(F)(F)F)ccc12 (stereo in doubt) [Example 112, (R)-3-(5-(3-((2-amino-2-oxoethyl)amino)piperidin-1-yl)-2-methoxy-benzamido)-N-(4-fluoro-3-(trifluoromethyl)phenyl)-6-(trifluoromethyl) benzo[b] thiophene-2-carboxamide]",593
6,"COc1ccc(N2CCCC(NCC(N)=O)C2)cc1C(=O)Nc1c(C(=O)Nc2ccc(F)c(C(F)(F)F)c2)sc2cc(C(F)(F)F)ccc12 (stereo in doubt) [Example 210, (S)-3-(5-(3-((2-amino-2-oxoethyl)amino)piperidin-1-yl)-2-methoxy-benzamido)-N-(4-fluoro-3-(trifluoromethyl)phenyl)-6-(trifluoromethyl) benzo[b] thiophene-2-carboxamide]",1930
7,"COC(=O)C1CN(c2ccc(OC)c(C(=O)Nc3c(C(=O)Nc4ccc(F)c(C(F)(F)F)c4)sc4cc(C(F)(F)F)ccc34)c2)C1 [Example 1, Methyl 1-(3-((2-((4-fluoro-3-(trifluoromethyl)phenyl)carbamoyl)-6-(trifluoromethyl)benzo[b]thiophen-3-yl)carbamoyl)-4-methoxyphenyl)azetidine-3-carboxylate]",631
8,"COc1ccc(-n2cc(C(=O)O)cn2)cc1C(=O)Nc1c(C(=O)Nc2ccc(F)c(C(F)(F)F)c2)sc2cc(C(F)(F)F)ccc12 [Example 2, 1-(3-((2-((4-fluoro-3-(trifluoromethyl)phenyl)carbamoyl)-6-(trifluoromethyl)benzo[b]thiophen-3-yl)carbamoyl)-4-methoxyphenyl)-1H-pyrazole-4-carboxylic acid]",2010
9,"COc1ccc(-n2cc(C(C)(C)O)cn2)cc1C(=O)Nc1c(C(=O)Nc2ccc(F)c(C(F)(F)F)c2)sc2cc(C(F)(F)F)ccc12 [Example 3, N-(4-fluoro-3-(trifluoromethyl)phenyl)-3-(5-(4-(2-hydroxypropan-2-yl)-1H-pyrazol-1-yl)-2-methoxybenzamido)-6-(trifluoromethyl) benzo[b]thiophene-2-carboxamide]",350
10,"COc1ccc(N2CCCCS2(=O)=O)cc1C(=O)Nc1c(C(=O)Nc2ccc(F)c(C(F)(F)F)c2)sc2cc(C(F)(F)F)ccc12 [Example 10, 3-(5-(1,1-dioxido-1,2-thiazinan-2-yl)-2-methoxybenzamido)-N-(4-fluoro-3-(trifluoromethyl)phenyl)-6-(trifluoromethyl)benzo[b]thiophene-2-carboxamide]",111
11,"COc1ncc(N2CCCC(CO)C2)cc1C(=O)Nc1c(C(=O)Nc2ccc(F)c(C(F)(F)F)c2)sc2cc(C(F)(F)F)ccc12 (stereo not shown) [Example 11, N-(2-((4-fluoro-3-(trifluoromethyl)phenyl)carbamoyl)-6-(trifluoromethyl)benzo[b]thiophen-3-yl)-5-(3-(hydroxymethyl)piperidin-1-yl)-2-methoxynicotinamide]",2540
12,"COc1ncc(N2CCS(=O)(=O)CC2)cc1C(=O)Nc1c(C(=O)Nc2ccc(F)c(C(F)(F)F)c2)sc2cc(C(F)(F)F)ccc12 [Example 12, 5-(1,1-dioxidothiomorpholino)-N-(2-((4-fluoro-3-(trifluoromethyl)phenyl)carbamoyl)-6-(trifluoromethyl)benzo[b]thiophen-3-yl)-2-methoxynicotinamide]",2130
13,"COc1ccc(-c2ccc(F)c(C(=O)O)c2)cc1C(=O)Nc1c(C(=O)Nc2ccc(F)c(C(F)(F)F)c2)sc2cc(C(F)(F)F)ccc12 [Example 13, 4-fluoro-3′-((2-((4-fluoro-3-(trifluoromethyl)phenyl)carbamoyl)-6-(trifluoromethyl)benzo[b]thiophen-3-yl)carbamoyl)-4′-methoxy-[1, 1′-biphenyl]-3-carboxylic acid]",87
14,"COc1ccc(-c2cccc(C(=O)O)c2F)cc1C(=O)Nc1c(C(=O)Nc2ccc(F)c(C(F)(F)F)c2)sc2cc(C(F)(F)F)ccc12 [Example 14, 2-fluoro-3′-((2-((4-fluoro-3-(trifluoromethyl)phenyl)carbamoyl)-6-(trifluoromethyl)benzo[b]thiophen-3-yl)carbamoyl)-4′-methoxy-[1,1′-biphenyl]-3-carboxylic acid]",135
15,"COc1ccc(-c2cc(C(=O)O)ccc2F)cc1C(=O)Nc1c(C(=O)Nc2ccc(F)c(C(F)(F)F)c2)sc2ccccc12 [Example 15, 6-fluoro-3′-((2-((4-fluoro-3-(trifluoromethyl)phenyl)carbamoyl)benzo[b]thiophen-3-yl)carbamoyl)-4′-methoxy-[1, 1′-biphenyl]-3-carboxylic acid]",1560
16,"COc1ccc(-c2cc(CN)ccc2F)cc1C(=O)Nc1c(C(=O)Nc2ccc(F)c(C(F)(F)F)c2)sc2cc(C(F)(F)F)ccc12 [Example 16, 3-(5′-(aminomethyl)-2′-fluoro-4-methoxy-[1,1′-biphenyl]-3-carboxamido)-N-(4-fluoro-3-(trifluoromethyl)phenyl)-6-(trifluoromethyl)benzo[b]thiophene-2-carboxamide]",677
